Patent publication US5543406A, “Inhibitors of 5-α-testosterone reductase” (priority 1994, dated 1996)

Columns and labels:
Steroid 5-α-Reductase [1] = target: T1, Steroid 5-α-Reductase (Homo sapiens, UniProt P31213); assay: Steroid 5-α-reductase in vitro assay, human prostate microsomes (BPH patients); format: biochemical; conditions: human prostatic microsomes; 100 nM [3H]-testosterone, 1 mM NADPH, 60 minutes at 37° C.
T1 construct: microsomes derived from prostate tissue of benign prostatic hypertrophy (BPH) patients; from tissue; host or cells: prostate tissue of BPH patients, microsomes
T1 sequence (P31213 1-254): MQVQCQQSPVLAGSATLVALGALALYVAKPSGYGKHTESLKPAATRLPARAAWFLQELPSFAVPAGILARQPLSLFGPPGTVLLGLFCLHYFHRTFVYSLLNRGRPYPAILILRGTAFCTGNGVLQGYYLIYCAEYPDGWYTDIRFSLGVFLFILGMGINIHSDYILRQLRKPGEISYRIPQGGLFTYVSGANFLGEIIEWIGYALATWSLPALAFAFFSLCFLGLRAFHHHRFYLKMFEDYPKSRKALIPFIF

Steroid 5-α-Reductase [2] = assay: Steroid 5-α-reductase in vitro assay, rat prostate microsomes; format: biochemical; conditions: rat prostatic microsomes; 100 nM [3H]-testosterone, 1 mM NADPH, 60 minutes at 37° C.; read-out: ID50 Rat

CCN(CC)C(=O)[C@H]1CC[C@H]2[C@@H]3CNC4=CC(=O)CC[C@]4(C)[C@H]3CC[C@]12C [Compound 1, 17β-N,N-Diethylcarbamoyl-6-azaandrost-4-en-3-one]
IC50 (Steroid 5-α-Reductase [1]): < 10 nM | IC50 (Steroid 5-α-Reductase [2]): 10 to 100 nM

CCN(CC)C(=O)[C@H]1CC[C@H]2[C@@H]3CNC4=CC(=O)C=C[C@]4(C)[C@H]3CC[C@]12C [Compound 6, 17β-N,N-Diethylcarbamoyl-6-azaandrost-1,4-dien-3-one]
IC50 (Steroid 5-α-Reductase [1]): 10 to 100 nM | IC50 (Steroid 5-α-Reductase [2]): 100 to 1000 nM

CCC1=C2NC[C@H]3[C@@H]4CC[C@H](C(=O)N(CC)CC)[C@@]4(C)CC[C@@H]3[C@@]2(C)CCC1=O [Compound 12, 17β-N,N-Diethylcarbamoyl-6-azaandrost-4-ethyl-4-en-3-one]
IC50 (Steroid 5-α-Reductase [1]): 100 to 1000 nM

CCN(CC)C(=O)/C=C/[C@H]1CC[C@H]2[C@@H]3CNC4=CC(=O)CC[C@]4(C)[C@H]3CC[C@]12C [Compound 76, 17β-1-(E)-Acrylyl(N,N-diethyl)amide-6-azaandrost-4-en-3-one]
IC50 (Steroid 5-α-Reductase [1]): 10 to 100 nM | IC50 (Steroid 5-α-Reductase [2]): 10 to 100 nM

CCN(CC)C(=O)[C@H]1CC[C@H]2[C@@H]3CN(CCCCN4C(=O)c5ccccc5C4=O)C4=CC(=O)CC[C@]4(C)[C@H]3CC[C@]12C [Compound 53, 17β-N,N-Diethylcarbamoyl-6-(4-phthalimidylbutyl)-6-azaandrost-4-en-3-one]
IC50 (Steroid 5-α-Reductase [1]): 100 to 1000 nM

CCN(CC)C(=O)[C@H]1CC[C@H]2[C@@H]3CN(CCCC(=O)O)C4=CC(=O)CC[C@]4(C)[C@H]3CC[C@]12C [Compound 47, 17β-N,N-Diethylcarbamoyl-6-(4-butanoic acid)-6-azaandrost-4-en-3-one]
IC50 (Steroid 5-α-Reductase [1]): 100 to 1000 nM

CC(C)(C)NC(=O)[C@H]1CC[C@H]2[C@@H]3CNC4=CC(=O)CC[C@]4(C)[C@H]3CC[C@]12C [Compound 3, 17β-N-t-Butylcarbamoyl-6-azaandrost-4-en-3-one]
IC50 (Steroid 5-α-Reductase [2]): 10 to 100 nM

C[C@]12CC[C@H]3[C@@H](CNC4=CC(=O)CC[C@@]43C)[C@@H]1CC[C@@H]2C(=O)Nc1cccc2ccccc12 [Compound 72, 17β-N-1-Napthylcarbamoyl-6-azaandrost-4-en-3-one]
IC50 (Steroid 5-α-Reductase [1]): < 10 nM

CCN(CC)C(=O)[C@H]1CC[C@H]2[C@@H]3CN(C)C4=C(C)C(=O)CC[C@]4(C)[C@H]3CC[C@]12C [Compound 68, 17β-N,N-Diethylcarbamoyl-6-methyl-6-azaandrost-4-methyl-4-en-3-one]
IC50 (Steroid 5-α-Reductase [2]): 100 to 1000 nM

CCN(CC)C(=O)[C@H]1CC[C@H]2[C@@H]3CN(CCCN4C(=O)c5ccccc5C4=O)C4=CC(=O)CC[C@]4(C)[C@H]3CC[C@]12C [Compound 52, 17β-N,N-Diethylcarbamoyl-6-(3-phthalimidylpropyl)-6-azaandrost-4-en-3-one]
IC50 (Steroid 5-α-Reductase [1]): 100 to 1000 nM

C[C@]12CC[C@H]3[C@@H](CNC4=CC(=O)CC[C@@]43C)[C@@H]1CC[C@@H]2C(=O)NC(c1ccccc1)c1ccccc1 [Compound 58, 17β-N-Diphenylmethylcarbamoyl-6-azaandrost-4-en-3-one]
IC50 (Steroid 5-α-Reductase [1]): < 10 nM | IC50 (Steroid 5-α-Reductase [2]): 10 to 100 nM

CC(C)CC(=O)[C@H]1CC[C@H]2[C@@H]3CN(C)C4=CC(=O)CC[C@]4(C)[C@H]3CC[C@]12C [Compound 26, 17β-(1-Oxo-3-methylbutyl)-6-methyl-6-azaandrost-4-en-3-one]
IC50 (Steroid 5-α-Reductase [2]): 10 to 100 nM

CCN(CC)C(=O)[C@H]1CC[C@H]2[C@@H]3CNC4=C(F)C(=O)CC[C@]4(C)[C@H]3CC[C@]12C [Compound 70, 17β-N,N-Diethylcarbamoyl-6-azaandrost-4-fluoro-4-en-3-one]
IC50 (Steroid 5-α-Reductase [1]): 10 to 100 nM

CN1C[C@H]2[C@@H]3CC[C@H](C(=O)NC(C)(C)C)[C@@]3(C)CC[C@@H]2[C@]2(C)C1=CC(=O)[C@@H]1C[C@@H]12 [Compound 34, 17β-N-t-Butylcarbamoyl-6-methyl-6-azaandrost-1α,2α-cyclopropyl-4-en-3-one]
IC50 (Steroid 5-α-Reductase [1]): 10 to 100 nM

CCN(CC)C(=O)[C@H]1CC[C@H]2[C@@H]3CN(CCOC)C4=CC(=O)CC[C@]4(C)[C@H]3CC[C@]12C [Compound 54, 17β-N,N-Diethylcarbamoyl-6-(2-methoxyethyl)-6-azaandrost-4-en-3-one]
IC50 (Steroid 5-α-Reductase [1]): 100 to 1000 nM

C[C@]12CC[C@H]3[C@@H](CNC4=CC(=O)CC[C@@]43C)[C@@H]1CC[C@@H]2C(=O)NC(c1ccccc1)(c1ccccc1)c1ccccc1 [Compound 71, 17β-N-Triphenylmethylcarbamoyl-6-azaandrost-4-en-3-one]
IC50 (Steroid 5-α-Reductase [1]): < 10 nM

CCN(CC)C(=O)[C@H]1CC[C@H]2[C@@H]3CN(CCCCCC(=O)O)C4=CC(=O)CC[C@]4(C)[C@H]3CC[C@]12C [Compound 50, 17β-N,N-Diethylcarbamoyl-6-(6-hexanoic acid)-6-azaandrost-4-en-3-one]
IC50 (Steroid 5-α-Reductase [1]): 100 to 1000 nM

CCN(CC)C(=O)[C@H]1CC[C@H]2[C@@H]3CNC4=C(Cl)C(=O)CC[C@]4(C)[C@H]3CC[C@]12C [Compound 8, 17β-N,N-Diethylcarbamoyl-6-azaandrost-4-chloro-4-en-3-one]
IC50 (Steroid 5-α-Reductase [2]): 10 to 100 nM

CCN(CC)C(=O)[C@H]1CC[C@H]2[C@@H]3CN(CCCO)C4=CC(=O)CC[C@]4(C)[C@H]3CC[C@]12C [Compound 15, 17β-N,N-Diethylcarbamoyl-6-(3-hydroxypropyl)-6-azaandrost-4-en-3-one]
IC50 (Steroid 5-α-Reductase [1]): 100 to 1000 nM

CCN(CC)C(=O)[C@H]1CC[C@H]2[C@@H]3CN(CCCCC(=O)OC)C4=CC(=O)CC[C@]4(C)[C@H]3CC[C@]12C [Compound 49, 17β-N,N-Diethylcarbamoyl-6-(methyl-5-pentanoate)-6-azaandrost-4-en-3-one]
IC50 (Steroid 5-α-Reductase [1]): 100 to 1000 nM

CCN(CC)C(=O)[C@H]1CC[C@H]2[C@@H]3CN(CC(C)C)C4=CC(=O)CC[C@]4(C)[C@H]3CC[C@]12C [Compound 40, 17β-N,N-Diethylcarbamoyl-6-isobutyl-6-azaandrost-4-en-3-one]
IC50 (Steroid 5-α-Reductase [1]): 100 to 1000 nM

CC1=C2N(C)C[C@H]3[C@@H]4CC[C@H](C(=O)NC(C)(C)C)[C@@]4(C)CC[C@@H]3[C@@]2(C)CCC1=O [Compound 69, 17β-N-t-Butylcarbamoyl-6-methyl-6-azaandrost-4-methyl-4-en-3-one]
IC50 (Steroid 5-α-Reductase [2]): 100 to 1000 nM

C[C@]12CC[C@H]3[C@@H](CNC4=CC(=O)C=C[C@@]43C)[C@@H]1CC[C@@H]2C(=O)NC12CC3CC(CC(C3)C1)C2 [Compound 30, 17β-N-1-Adamantylcarbamoyl-6-azaandrost-1,4-dien-3-one]
IC50 (Steroid 5-α-Reductase [1]): < 10 nM

CCN(CC)C(=O)[C@H]1CC[C@H]2[C@@H]3CN(C(C)C)C4=CC(=O)CC[C@]4(C)[C@H]3CC[C@]12C [Compound 39, 17β-N,N-Diethylcarbamoyl-6-isopropyl-6-azaandrost-4-en-3-one]
IC50 (Steroid 5-α-Reductase [1]): < 10 nM

CCN(CC)C(=O)[C@H]1CC[C@H]2[C@@H]3CN(CC(=O)O)C4=CC(=O)CC[C@]4(C)[C@H]3CC[C@]12C [Compound 44, 17β-N,N-Diethylcarbamoyl-6-(2-acetic acid)-6-azaandrost-4-en-3-one]
IC50 (Steroid 5-α-Reductase [1]): 100 to 1000 nM

CC(C)CC(=O)[C@H]1CC[C@H]2[C@@H]3CNC4=C(Br)C(=O)CC[C@]4(C)[C@H]3CC[C@]12C [Compound 66, 17β-(1-Oxo-3-methylbutyl)-6-azaandrost-4-bromo-4-en-3-one]
IC50 (Steroid 5-α-Reductase [2]): 10 to 100 nM

CCN(CC)C(=O)[C@H]1CC[C@H]2[C@@H]3CNC4=C(C#N)C(=O)CC[C@]4(C)[C@H]3CC[C@]12C [Compound 13, 17β-N,N-Diethylcarbamoyl-6-azaandrost-4-cyano-4-en-3-one]
IC50 (Steroid 5-α-Reductase [1]): 100 to 1000 nM

CCN(CC)C(=O)[C@H]1CC[C@H]2[C@@H]3CN(CCCCC(=O)O)C4=CC(=O)CC[C@]4(C)[C@H]3CC[C@]12C [Compound 48, 17β-N,N-Diethylcarbamoyl-6-(5-pentanoic acid)-6-azaandrost-4-en-3-one]
IC50 (Steroid 5-α-Reductase [1]): 100 to 1000 nM

CCN(CC)C(=O)[C@H]1CC[C@H]2[C@@H]3CNC4=C(C)C(=O)CC[C@]4(C)[C@H]3CC[C@]12C [Compound 11, 17β-N,N-Diethylcarbamoyl-6-azaandrost-4-methyl-4-en-3-one]
IC50 (Steroid 5-α-Reductase [2]): 100 to 1000 nM

CCN(CC)C(=O)[C@H]1CC[C@H]2[C@@H]3CN(CCC(=O)O)C4=CC(=O)CC[C@]4(C)[C@H]3CC[C@]12C [Compound 45, 17β-N,N-Diethylcarbamoyl-6-(3-propanoic acid)-6-azaandrost-4-en-3-one]
IC50 (Steroid 5-α-Reductase [1]): 100 to 1000 nM

CN1C[C@H]2[C@@H]3CC[C@H](C(=O)O)[C@@]3(C)CC[C@@H]2[C@@]2(C)CCC(=O)C=C12 [Compound 25, 17β-Carboxy-6-methyl-6-azaandrost-4-en-3-one]
IC50 (Steroid 5-α-Reductase [1]): 100 to 1000 nM

C=CCN1C[C@H]2[C@@H]3CC[C@H](C(=O)N(CC)CC)[C@@]3(C)CC[C@@H]2[C@@]2(C)CCC(=O)C=C12 [Compound 42, 17β-N,N-Diethylcarbamoyl-6-allyl-6-azaandrost-4-en-3-one]
IC50 (Steroid 5-α-Reductase [1]): 100 to 1000 nM

CCN(CC)C(=O)[C@H]1CC[C@H]2[C@@H]3CN(CCC(=O)OC)C4=CC(=O)CC[C@]4(C)[C@H]3CC[C@]12C [Compound 46, 17β-N,N-Diethylcarbamoyl-6-(methyl-3-propanoate)-6-azaandrost-4-en-3-one]
IC50 (Steroid 5-α-Reductase [1]): 100 to 1000 nM

CCN(CC)C(=O)[C@H]1CC[C@H]2[C@@H]3CNC4=C(CN(C)C)C(=O)CC[C@]4(C)[C@H]3CC[C@]12C [Compound 14, 17β-N,N-Diethylcarbamoyl-6-azaandrost-4-dimethylaminomethylene-4-en-3-one]
IC50 (Steroid 5-α-Reductase [1]): 100 to 1000 nM

CCOC(=O)CCCCCN1C[C@H]2[C@@H]3CC[C@H](C(=O)N(CC)CC)[C@@]3(C)CC[C@@H]2[C@@]2(C)CCC(=O)C=C12 [Compound 51, 17β-N,N-Diethylcarbamoyl-6-(ethyl-6-hexanoate)-6-azaandrost-4-en-3-one]
IC50 (Steroid 5-α-Reductase [1]): 100 to 1000 nM

CCN(CC)C(=O)[C@H]1CC[C@H]2[C@@H]3CN(CC4CC4)C4=CC(=O)CC[C@]4(C)[C@H]3CC[C@]12C [Compound 41, 17β-N,N-Diethylcarbamoyl-6-methylenecyclopropyl-6-azaandrost-4-en-3-one]
IC50 (Steroid 5-α-Reductase [1]): 100 to 1000 nM
